ChEMBL document CHEMBL1671819, “Interactions of monoamine oxidases with the antiepileptic drug zonisamide: specificity of inhibition and structure of the human monoamine oxidase B complex” (J Med Chem, 2011)

Experiments:
[1] = target: T1, Amine oxidase [flavin-containing] A (Rattus norvegicus, UniProt P21396); assay: Competitive inhibition of rat MAOA by spectrophotometry
T1 sequence (P21396 whole entry): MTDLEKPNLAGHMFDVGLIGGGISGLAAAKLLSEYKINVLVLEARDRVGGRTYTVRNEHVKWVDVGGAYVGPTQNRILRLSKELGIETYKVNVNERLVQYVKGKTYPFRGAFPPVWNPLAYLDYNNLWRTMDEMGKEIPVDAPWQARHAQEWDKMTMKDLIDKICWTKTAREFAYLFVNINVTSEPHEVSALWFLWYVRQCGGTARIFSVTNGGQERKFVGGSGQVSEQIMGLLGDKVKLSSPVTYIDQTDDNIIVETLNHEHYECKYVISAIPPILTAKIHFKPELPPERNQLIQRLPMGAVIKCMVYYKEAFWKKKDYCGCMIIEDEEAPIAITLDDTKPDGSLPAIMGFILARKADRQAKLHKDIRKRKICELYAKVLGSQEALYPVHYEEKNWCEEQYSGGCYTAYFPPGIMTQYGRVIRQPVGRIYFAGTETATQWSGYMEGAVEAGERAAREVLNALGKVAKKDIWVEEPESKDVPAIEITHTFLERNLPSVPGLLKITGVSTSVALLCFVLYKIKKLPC

[2] = target: T2, Amine oxidase [flavin-containing] B (Rattus norvegicus, UniProt P19643); assay: Competitive inhibition of rat MAO B by spectrophotometry
T2 sequence (P19643 whole entry): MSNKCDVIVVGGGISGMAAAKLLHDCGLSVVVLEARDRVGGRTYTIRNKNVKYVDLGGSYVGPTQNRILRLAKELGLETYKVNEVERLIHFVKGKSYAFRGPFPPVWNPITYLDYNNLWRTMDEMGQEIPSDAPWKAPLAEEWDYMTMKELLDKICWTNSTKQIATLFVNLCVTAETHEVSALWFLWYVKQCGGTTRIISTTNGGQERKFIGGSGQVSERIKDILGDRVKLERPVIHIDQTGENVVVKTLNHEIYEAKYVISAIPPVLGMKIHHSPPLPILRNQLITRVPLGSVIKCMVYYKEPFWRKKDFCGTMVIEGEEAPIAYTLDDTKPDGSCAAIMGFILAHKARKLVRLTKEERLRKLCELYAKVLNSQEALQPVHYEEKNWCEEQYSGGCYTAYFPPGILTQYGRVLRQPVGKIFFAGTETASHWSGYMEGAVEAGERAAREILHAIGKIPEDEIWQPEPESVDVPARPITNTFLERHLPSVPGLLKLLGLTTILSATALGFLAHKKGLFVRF

[3] = target: T3, Amine oxidase [flavin-containing] B (Homo sapiens, UniProt P27338); assay: Competitive inhibition of human MAO B by spectrophotometry
T3 sequence (P27338 whole entry): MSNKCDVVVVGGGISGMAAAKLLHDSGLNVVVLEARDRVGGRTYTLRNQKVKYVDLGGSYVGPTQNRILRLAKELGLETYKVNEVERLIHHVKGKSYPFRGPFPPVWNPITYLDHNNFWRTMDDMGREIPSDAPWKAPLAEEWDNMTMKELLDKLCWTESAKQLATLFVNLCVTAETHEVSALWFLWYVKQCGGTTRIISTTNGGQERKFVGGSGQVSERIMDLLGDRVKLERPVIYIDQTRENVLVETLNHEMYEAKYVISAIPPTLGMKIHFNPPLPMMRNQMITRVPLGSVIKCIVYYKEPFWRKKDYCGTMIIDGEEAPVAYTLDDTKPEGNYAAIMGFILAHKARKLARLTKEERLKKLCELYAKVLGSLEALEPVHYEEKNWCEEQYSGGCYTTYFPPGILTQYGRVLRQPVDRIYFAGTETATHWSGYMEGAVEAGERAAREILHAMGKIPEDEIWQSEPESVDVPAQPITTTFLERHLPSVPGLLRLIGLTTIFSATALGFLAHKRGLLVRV

[4] = target: T4, Amine oxidase [flavin-containing] (Danio rerio, UniProt Q6NSN2); assay: Competitive inhibition of zebrafish MAO by spectrophotometry
T4 sequence (Q6NSN2 whole entry): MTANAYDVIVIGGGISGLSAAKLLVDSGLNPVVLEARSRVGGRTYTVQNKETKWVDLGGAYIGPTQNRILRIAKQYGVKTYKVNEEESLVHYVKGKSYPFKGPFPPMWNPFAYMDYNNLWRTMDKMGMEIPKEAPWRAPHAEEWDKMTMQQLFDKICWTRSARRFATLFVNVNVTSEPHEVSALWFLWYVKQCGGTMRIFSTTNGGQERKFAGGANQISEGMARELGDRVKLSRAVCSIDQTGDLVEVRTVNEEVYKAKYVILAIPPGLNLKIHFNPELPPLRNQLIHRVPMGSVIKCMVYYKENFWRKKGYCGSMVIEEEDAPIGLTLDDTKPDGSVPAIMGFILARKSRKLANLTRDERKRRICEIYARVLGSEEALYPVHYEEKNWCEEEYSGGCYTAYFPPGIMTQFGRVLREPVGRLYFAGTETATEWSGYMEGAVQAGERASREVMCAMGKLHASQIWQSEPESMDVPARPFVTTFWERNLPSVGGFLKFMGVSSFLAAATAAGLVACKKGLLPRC

[5] = system: Serum; assay: Drug level in parkinson's disease patient serum at 25 mg/day; type: ADME, cell-free; conditions: human, read-out: Drug uptake
[6] = target: T5, Amine oxidase [flavin-containing] A (Homo sapiens, UniProt P21397); assay: Competitive inhibition of human MAOA by spectrophotometry
T5 sequence (P21397 whole entry): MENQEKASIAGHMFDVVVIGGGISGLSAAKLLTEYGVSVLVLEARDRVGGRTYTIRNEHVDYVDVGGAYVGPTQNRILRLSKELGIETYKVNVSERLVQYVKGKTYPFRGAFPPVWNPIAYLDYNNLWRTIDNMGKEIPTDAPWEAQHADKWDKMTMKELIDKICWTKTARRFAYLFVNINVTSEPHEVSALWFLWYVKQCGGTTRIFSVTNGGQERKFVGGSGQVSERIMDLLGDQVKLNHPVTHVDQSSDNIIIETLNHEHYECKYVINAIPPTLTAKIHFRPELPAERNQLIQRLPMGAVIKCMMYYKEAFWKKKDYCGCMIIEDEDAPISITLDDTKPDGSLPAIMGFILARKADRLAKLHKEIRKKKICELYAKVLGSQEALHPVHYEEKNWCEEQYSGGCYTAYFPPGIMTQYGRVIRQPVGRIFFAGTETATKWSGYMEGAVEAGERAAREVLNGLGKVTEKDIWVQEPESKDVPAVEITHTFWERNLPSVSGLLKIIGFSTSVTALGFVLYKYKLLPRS

inhibition (INH) [1]: Not Active
Ki [2]: 2.9 µM
Ki [3]: 3.1 µM
Ki [4]: 30.8 µM
concentration [5]: 0.6 µM
inhibition (INH) [6]: Not Active
SMILES: NS(=O)(=O)Cc1noc2ccccc12 [ZONISAMIDE]
